Holding throughout (details): stereoisomer not certain
Data set [1] in a line: RP, Thermo Scientific Acclaim RSLC 120 C18, 100 × 2.1 mm, 2.2 µm, 30 °C, 0.2 mL/min, estimated dead time 1.1 min; A: water + 0.1% formic acid, pH 2.6; B: methanol + 0.1% formic acid, pH 2.6; gradient (min/%B) 0/10 4/50 17/95 25/95 25.1/10 30/10.
The nature of data set [2]: RP, Waters ACQUITY UPLC BEH C18, 100 × 2.1 mm, 1.7 µm, 30 °C, 0.35 mL/min, estimated dead time 0.63 min; A: water + 0.01% formic acid + 5 mM ammonium formate, pH 3.71; B: acetonitrile + 0.01% formic acid, pH 3.71; gradient (min/%B) 0/10 3/10 22/100 30/100 30.1/10 40/10.
A short description of data set [3]: RP, Waters ACQUITY UPLC BEH C18, 100 × 2.1 mm, 1.7 µm, 35 °C, 0.35 mL/min, estimated dead time 0.63 min; A: water + 0.01% formic acid + 5 mM ammonium formate, pH 3.71; B: acetonitrile + 0.01% formic acid, pH 3.71; gradient (min/%B) 0/5 0.5/5 16/95 16.1/99 19/99 19.1/5 21/5.
The nature of data set [4]: RP, Thermo Scientific Acclaim RSLC 120 C18, 100 × 2.1 mm, 2.2 µm, 30 °C, 0.2 mL/min, estimated dead time 1.1 min; A: 90% water + 10% methanol + 0.01% formic acid + 5 mM ammonium formate, pH 3.61; B: methanol + 0.01% formic acid + 5 mM ammonium formate, pH 3.61; gradient (min/%B) 0/1 1/1 2/39 13/99.9 15/99.9 15.1/1 20.1/1.

Turning to `CCCCC(CC)COC(=O)C(C#N)=C(c1ccccc1)c1ccccc1` (stereo unspecified) [Octocrylene], the LC retention time in data set [1] is 18 min; in data set [2] it was 19.8 min; in data set [3], 15.3 min; in data set [4] it was 13.4 min.

As to `CCN(CC)CC(=O)Nc1c(C)cccc1C` [Lidocaine], the LC retention time was 4.46 min in data set [1], 5.29 min in data set [2], 4.18 min in data set [3] and 4.54 min in data set [4].

Consider `CNC(=O)ON=C(C)C(C)SC` (stereo unspecified) [Butocarboxim], for which the LC retention time in data set [1] was 6.82 min; in data set [2], 7.64 min; in data set [3], 5.7 min; in data set [4], 6.07 min.

As to `CC(=O)Nc1ccc(S(=O)(=O)Nc2nc(C)cc(C)n2)cc1` [Sulfamethazine-N4-Acetyl], the LC retention time was 5.06 min in data set [1], 5.03 min in data set [2], 4.03 min in data set [3] and 4.59 min in data set [4].

Regarding `Nc1nnc(-c2cccc(Cl)c2Cl)c(N)n1` [Lamotrigine], the LC retention time in data set [1] is 5.17 min; in data set [2] it was 6.41 min; in data set [3], 4.66 min; in data set [4], 5.31 min.

In the case of `CCSCc1ccccc1OC(=O)NC` [Ethiofencarb], the LC retention time is 9.05 min in data set [1], 10.7 min in data set [2], 8.02 min in data set [3] and 7.7 min in data set [4].

As to `CCN(C)C(=O)Oc1cccc(C(C)N(C)C)c1` (stereo unspecified) [Rivastigmine], the LC retention time in data set [1] was 4.86 min; in data set [2], 6.53 min; in data set [3], 4.78 min; in data set [4] it was 4.74 min.

Regarding `N#CSCSc1nc2ccccc2s1` [TCMTB], the LC retention time in data set [1] was 11.4 min; in data set [2], 13.4 min; in data set [3] it was 10.1 min; in data set [4], 9.25 min.

With `CC(C)NCC(O)c1ccc(N)c(C#N)c1` (stereo unspecified) [Cimaterol], the LC retention time is 2.51 min in data set [1], 1.48 min in data set [2], 2.1 min in data set [3] and 2.99 min in data set [4].

`Cc1cccc(C)c1OCC(=O)NC(Cc1ccccc1)C(O)CC(Cc1ccccc1)NC(=O)C(C(C)C)N1CCCNC1=O` (stereo unspecified) [Lopinavir]: the LC retention time in data set [1] was 15.4 min; in data set [2] it was 14.4 min; in data set [3], 11 min; in data set [4] it was 11.8 min.

For the molecule `CN=C(NC#N)NCCSCc1nc[nH]c1C` [Cimetidine], the LC retention time in data set [1] was 2.88 min; in data set [2] it was 1.54 min; in data set [3], 2.11 min; in data set [4], 3.24 min.

For `CCOP(=O)(OCC)OCC` [Phosphate-triethyl], the LC retention time was 6.94 min in data set [1], 7.31 min in data set [2], 5.48 min in data set [3] and 6.16 min in data set [4].

With `NC1Cc2cc3c(cc2C1)OCO3` [MDAI], the LC retention time is 3.47 min in data set [1], 2.34 min in data set [2], 2.95 min in data set [3] and 3.81 min in data set [4].

For the molecule `Cn1c(=O)c2[nH]cnc2n(C)c1=O` [Theophylline], the LC retention time in data set [1] was 4.14 min; in data set [2], 1.66 min; in data set [3], 2.31 min; in data set [4], 3.93 min.

In the case of `c1ccc2n[nH]nc2c1` [Benzotriazole (BTR)], the LC retention time in data set [1] was 5.31 min; in data set [2], 3.69 min; in data set [3] it was 3.61 min; in data set [4] it was 4.76 min.

On to `COc1cc(Cc2cnc(N)nc2N)cc(OC)c1OC` [Trimethoprim], for which the LC retention time in data set [1] was 3.86 min; in data set [2] it was 4.48 min; in data set [3], 3.78 min; in data set [4], 4.06 min.

In the case of `O=P(Oc1ccccc1)(Oc1ccccc1)Oc1ccccc1` [Phosphate-Triphenyl], the LC retention time is 14.3 min in data set [1], 15.5 min in data set [2], 11.8 min in data set [3] and 11 min in data set [4].

`CCCCOc1ccc(CC(=O)NO)cc1` [Bufexamac]: the LC retention time in data set [1] is 9.38 min; in data set [2] it was 9.74 min; in data set [3], 7.21 min; in data set [4], 7.83 min.

Turning to `CCNc1nc(Cl)nc(NC(C)C)n1` [Atrazine], the LC retention time in data set [1] is 9.72 min; in data set [2] it was 10.3 min; in data set [3], 7.82 min; in data set [4], 8.16 min.

In the case of `CC(C)NCC(O)COc1cccc2ccccc12` (stereo unspecified) [Propranolol], the LC retention time in data set [1] is 6.27 min; in data set [2] it was 8.91 min; in data set [3], 6.49 min; in data set [4], 6.59 min.

Consider `Cn1cnc2c1c(=O)[nH]c(=O)n2C` [Theobromine], for which the LC retention time was 3.37 min in data set [1], 1.23 min in data set [2], 1.65 min in data set [3] and 3.28 min in data set [4].

`O=C(O)c1cn(C2CC2)c2cc(N3CCNCC3)c(F)cc2c1=O` [Ciprofloxacin]: the LC retention time was 4.46 min in data set [1], 5.54 min in data set [2], 4.13 min in data set [3] and 4.42 min in data set [4].

Take `CN1C(=O)CCC1c1cccnc1` (stereo unspecified) [Cotinine]: the LC retention time was 1.71 min in data set [1], 1.41 min in data set [2], 2.06 min in data set [3] and 3.75 min in data set [4].

As to `CCCCCc1cc(O)c2c(c1)OC(C)(C)C1CCC(C)=CC21` (stereo unspecified) [THC], the LC retention time in data set [1] is 18.7 min; in data set [2], 19.6 min; in data set [3], 15.1 min; in data set [4], 14 min.

Take `CC(C)NCC(O)COc1ccc(COCCOC(C)C)cc1` (stereo unspecified) [Bisoprolol]: the LC retention time was 5.8 min in data set [1], 8.09 min in data set [2], 5.91 min in data set [3] and 5.91 min in data set [4].

Regarding `CC(C)NCC(O)COc1cccc2[nH]ccc12` (stereo unspecified) [Pindolol], the LC retention time in data set [1] was 3.69 min; in data set [2], 4.14 min; in data set [3] it was 3.7 min; in data set [4], 3.89 min.

On to `CC(N)Cc1ccc2c(c1)OCO2` (stereo unspecified) [MDA], for which the LC retention time in data set [1] was 3.96 min; in data set [2], 3.36 min; in data set [3] it was 3.46 min; in data set [4], 4.19 min.

On to `COc1cccc(C2(O)CCCCC2CN(C)C)c1` (stereo unspecified) [Tramadol], for which the LC retention time was 4.86 min in data set [1], 6.56 min in data set [2], 4.79 min in data set [3] and 4.88 min in data set [4].

Take `COC(=O)Nc1nc2ccc(Sc3ccccc3)cc2[nH]1` [Fenbendazole]: the LC retention time in data set [1] was 10.9 min; in data set [2] it was 12.2 min; in data set [3], 9.17 min; in data set [4] it was 10.3 min.

(Values after the RepoRT retention time repository (doi:10.1021/acs.analchem.2c02893).)
